Values after ≈ are worked out from the molar mass of the structure shown.
Experiments:
[1] = system: S. aureus ATCC 29213 MSSA; settings: range in parentheses; cited from earlier work
E. coli ATCC 25922 [2] = settings: range in parentheses; cited from earlier work
S. pyogenes ATCC 19615 = assay: MIC broth microdilution; type: cell-based; settings: Streptococcus pyogenes, ATCC19615, 20 h; S. pyogenes ATCC 19615; CAMHB with 3% lysed horse blood; read-out: MIC
Experimental: (§1) Twenty-four test agents were shipped to Micromyx and stored at −20° C. until assayed. The compounds were dissolved in 100% DMSO at 6.46 mg/mL prior to testing. Comparator drugs were supplied by Micromyx and were handled as described below:
(§2) The test organisms for the assay were recent clinical isolates or reference strains acquired from the American Type Culture Collection (ATCC; Manassas, Va.). Upon receipt, the isolates were streaked onto Trypticase Soy Agar II+5% sheep blood (TSAB). Colonies were harvested from the plates and a cell suspension was prepared in Trypticase Soy Broth containing cryoprotectant. Aliquots were then frozen at −80° C. Prior to the assay, the frozen seeds of all bacterial isolates to be tested were thawed and streaked for isolation onto TSAB (BD/BBL, Sparks, Md.; Lot No. 9011894), and were incubated overnight at 35° C.
(§3) The test medium for all isolates was cation-adjusted Mueller Hinton broth (CAMHB; BD/BBL; Lot No. 8190586). CAMHB (Cation Adjusted Mueller Hinton Broth) was supplemented with 3% (v/v) lysed horse blood (LHB; Hemostat, Dixon, Calif.; Lot No. 474990) for the testing of streptococci.
(§4) MIC values were determined using a broth microdilution method as recommended by CLSI. Automated liquid handlers (Multidrop 384, Labsystems, Helsinki, Finland; Biomek 2000 and Biomek F/X, Beckman Coulter, Fullerton Calif.) were used to conduct serial dilutions and make liquid transfers.
(§5) The wells of standard 96-well microdilution plates (Costar 3795, Corning Inc., Corning, N.Y.) were filled with 150 μL of the appropriate diluent in columns 2-12 on the Multidrop 384 (DMSO for the thiostrepton analogs, deionized H2O for vancomycin and ceftazidime). These plates were used to prepare the drug “mother plate” which provided the serial drug dilutions for the replicate “daughter plates”. The compounds (300 μL) were dispensed at 101× the highest concentration to be tested into the appropriate row of the “mother plate”. The Biomek 2000 was used to transfer 150 μL of each stock solution from the wells in Column 1 of the mother plate to make ten subsequent 2-fold serial dilutions. The wells of Column 12 contained no drug and served as the organism growth control wells. The daughter plates were loaded with 190 μL of test medium using the Multidrop 384.
(§6) The daughter plates were prepared on the Biomek F/X instrument which transferred […] of drug solution from each well of the mother plate to each corresponding well of each daughter plate in a single step. The wells of the daughter plates ultimately contained 190 μL of media, 2 μL of drug solution, and 10 μL of inoculum prepared as described below. The final concentration of DMSO (if used as a solvent) in the test well was 1%.
(§7) A standardized inoculum of each organism was prepared per CLSI methods. A suspension of organisms from a fresh plate was prepared in CAMHB to equal the turbidity of a 0.5 McFarland standard. The suspensions were diluted 1:20 in CAMHB, or in the case of streptococci CAMHB with LHB. The inoculum for each organism was dispensed into sterile reservoirs divided by length (Beckman Coulter), and the Biomek 2000 was used to inoculate the plates. Daughter plates were placed on the Biomek 2000 work surface reversed so that inoculation took place from low to high drug concentration. The Biomek 2000 delivered 10 μL of standardized inoculum into each well. These dilutions yielded a final cell concentration in the daughter plates of approximately 5.0×10^5 CFU/mL.
(§8) Plates were stacked 3 high, covered with a lid on the top plate, placed in plastic bags, and incubated at 35° C. for 16-20 hr for all organisms except streptococci which were incubated for 20-24 hr. Following incubation, the microplates were removed from the incubator and viewed from the bottom using a plate viewer. The MIC was read and recorded as the lowest concentration of drug that inhibited visible growth of the organism. […]

E. coli ATCC 25922 [3] = assay: MIC broth microdilution; type: cell-based; settings: Escherichia coli, ATCC25922; E. coli ATCC 25922; CAMHB; read-out: MIC
Experimental: as §1, §2, §3, §4, §5, §6, §7, §8

E. faecium MMX 485 VRE = assay: MIC broth microdilution; type: cell-based; settings: Enterococcus faecium; E. faecium MMX 485 VRE; CAMHB; read-out: MIC
Experimental: as §1, §2, §3, §4, §5, §6, §7, §8

[4] = system: S. aureus ATCC 29213 MSSA; assay: MIC broth microdilution; type: cell-based; settings: Staphylococcus aureus; S. aureus ATCC 29213 MSSA; CAMHB; read-out: MIC
Experimental: as §1, §2, §3, §4, §5, §6, §7, §8

[5] = system: S. pneumoniae ATCC 49619 PISP; assay: MIC broth microdilution; type: cell-based; settings: Streptococcus pneumoniae, ATCC49619, 20 h; S. pneumoniae ATCC 49619 PISP; CAMHB with 3% lysed horse blood; read-out: MIC
Experimental: as §1, §2, §3, §4, §5, §6, §7, §8

E. faecalis MMX 486 VRE = assay: MIC broth microdilution; type: cell-based; settings: Enterococcus faecalis; E. faecalis MMX 486 VRE; CAMHB; read-out: MIC
Experimental: as §1, §2, §3, §4, §5, §6, §7, §8

E. faecium MMX 708 VSE = assay: MIC broth microdilution; type: cell-based; settings: Enterococcus faecium, MMX708VSE; E. faecium MMX 708 VSE; CAMHB; read-out: MIC
Experimental: as §1, §2, §3, §4, §5, §6, §7, §8

[6] = system: E. faecalis ATCC 29212 VSE; assay: MIC broth microdilution; type: cell-based; settings: Enterococcus faecalis, ATCC29212; E. faecalis ATCC 29212 VSE; CAMHB; read-out: MIC
Experimental: as §1, §2, §3, §4, §5, §6, §7, §8

S. aureus MMX 8088 MRSA = assay: MIC broth microdilution; type: cell-based; settings: Staphylococcus aureus; S. aureus MMX 8088 MRSA; CAMHB; read-out: MIC
Experimental: as §1, §2, §3, §4, §5, §6, §7, §8

[7] = system: S. pneumoniae and S. pyogenes isolates; assay: MIC broth microdilution, summary over streptococci; type: cell-based; settings: across evaluated streptococci; read-out: MIC values against S. pneumoniae and S. pyogenes isolates
Experimental: as §1, §2
The test medium for all isolates was cation-adjusted Mueller Hinton broth (CAMHB; BD/BBL; Lot No. 8190586). […]
MIC values were determined using a broth microdilution method as recommended by CLSI. […]
as §8, with “Following incubation, the microplates were removed from the incubator and viewed from the bottom using a plate viewer.” left out

S. aureus isolates = assay: MIC broth microdilution, S. aureus isolates; type: cell-based; settings: Staphylococcus aureus; across MSSA and MRSA isolates; read-out: MIC values against S. aureus isolates
Experimental: as §1, §2, §3, §4, §5, §6, §7, §8

[8] = Un-inoculated solubility control plate (drug precipitation); type: physicochemical; settings: at 64 μg/mL in CAMHB in LHB
[9] = system: E. faecalis and E. faecium; assay: MIC broth microdilution, summary over enterococci; type: cell-based; settings: across the evaluated enterococci, VSE and VRE; read-out: MIC values against E. faecalis and E. faecium
Experimental: as §1, §2, §3, §4, §5, §6, §7, §8

Gram-positive cocci = assay: MIC broth microdilution, overall summary; type: cell-based; settings: summary of MIC testing
Experimental: as §1, §2, §3, §4, §5
The daughter plates were prepared on the Biomek F/X instrument which transferred […] of drug solution from each well of the mother plate to each corresponding well of each daughter plate in a single step. […]
as §8, with “Following incubation, the microplates were removed from the incubator and viewed from the bottom using a plate viewer.” left out

[10] = Aqueous solubility analysis in MOPS buffer; type: physicochemical; settings: aqueous 10 mM MOPS buffer, thermodynamic from solid; after 24 hours in 10 mM aqueous MOPS buffer, pH 7.2
Experimental: A 2 dram vial was loaded with ˜0.5 mg of a thiostrepton derivative and suspended in ˜4 mL of aqueous 10 mM MOPS buffer (pKa 7.2). The suspension was stirred vigorously for 24 h to ensure equilibration, then filtered through a […] centrifuge filtration unit. A 3.0 mL aliquot was concentrated, and the dried residue was diluted with 0.30 mL of 1:1 1,4-dioxane/H2O (10× original concentration necessitated by detection limits). The total UV absorbance (200-300 nm) was measured in triplicate by UPLC runs with a photodiode array detector. A calibration curve for each compound was created using data points from 3 trials each of concentrations in 1:1 1,4-dioxane/H2O ranging from […]. These concentrations were plotted against their respective average absorbances. The experimental concentration of each compound was calculated by dividing the found μg/mL value by the residue concentration factor of 10 to yield the actual solubility value.

| MIC (S. pyogenes ATCC 19615) [µg/mL] | MIC (E. coli ATCC 25922 [3]) [µg/mL] | MIC (E. faecium MMX 485 VRE) [µg/mL] | MIC [4] [µg/mL] | MIC [5] [µg/mL] | MIC (E. faecalis MMX 486 VRE) [µg/mL] | MIC (E. faecium MMX 708 VSE) [µg/mL] | MIC [6] [µg/mL] | MIC (S. aureus MMX 8088 MRSA) [µg/mL] | MIC [7] [µg/mL] | MIC (S. aureus isolates) [µg/mL] | Precipitation in CAMHB in LHB [8] | MIC [9] [µg/mL] | solubility at 24 h [10] [µg/mL] | SMILES | CLSI quality control range (MIC) [1] [µg/mL] | CLSI quality control range (MIC) (E. coli ATCC 25922 [2]) [µg/mL] | Activity among the evaluated analogs / against evaluated Gram-positive cocci (summary in words) (Gram-positive cocci) |
| --- | --- | --- | --- | --- | --- | --- | --- | --- | --- | --- | --- | --- | --- | --- | --- | --- | --- |
| 0.12 (≈ 0.22 µM) | 0.25 (≈ 0.457 µM) | > 32 | 8 (≈ 14.6 µM) | 0.5 (≈ 0.915 µM) | > 32 | > 32 | > 32 | > 32 | – | – | – | – | – | CC(C)(O/N=C(\C(=O)N[C@@H]1C(=O)N2C(C(=O)[O-])=C(C[n+]3ccccc3)CS[C@H]12)c1csc(N)n1)C(=O)O [Ceftazidime, reference compound] | 4 to 16 | 0.06 to 0.5 | – |
| 0.25 (≈ 0.126 µM) | > 64 | 8 (≈ 4.02 µM) | 16 (≈ 8.04 µM) | 0.25 (≈ 0.126 µM) | 16 (≈ 8.04 µM) | 16 (≈ 8.04 µM) | 16 (≈ 8.04 µM) | 16 (≈ 8.04 µM) | 0.25 (≈ 0.126 µM) | 16 (≈ 8.04 µM) | distinct precipitation | 8 to 16 (≈ 4.02 to 8.04 µM) | 11 (≈ 5.53 µM) | C=C(NC(=O)c1csc(C2=N[C@@H]3c4csc(n4)[C@H]4NC(=O)c5csc(n5)[C@H]([C@](C)(O)[C@@H](C)O)NC(=O)C5CSC(=N5)/C(=C/C)NC(=O)[C@H]([C@@H](C)O)NC(=O)c5csc(n5)[C@]3(CC2)NC(=O)[C@H](C)NC(=O)C(=C)NC(=O)[C@H](C)NC(=O)[C@H]([C@@H](C)CC)N[C@@H]2C=Cc3c([C@H](C)O)cc(nc3[C@H]2O)C(=O)O[C@@H]4C)n1)C(=O)NC(=CNC(=O)c1cccc(/C=N/OC2O[C@H](CO)[C@@H](O)[C@H](O)[C@H]2O)c1)C(N)=O (some centres unmarked) [RJS-16] | – | – | least activity |

— patent US20220315624A1, “THIOSTREPTON ANALOGS AND METHODS OF MAKING AND USING SAME” (YALE UNIVERSITY, priority 2019, published 2022)
